Consider 33 compounds from patent US20260365663A1, “EMOPAMIL-BINDING PROTEIN INHIBITORS AND USES THEREOF” (BIOGEN MA INC., priority 2022, published 2026).

The first experiment deals with T1, EBP (Homo sapiens, UniProt Q15125).
T1 construct: HEK293T cells were utilized as the source of EBP enzyme; endogenous in cells; host or cells: HEK293T
T1 sequence (Q15125 whole entry): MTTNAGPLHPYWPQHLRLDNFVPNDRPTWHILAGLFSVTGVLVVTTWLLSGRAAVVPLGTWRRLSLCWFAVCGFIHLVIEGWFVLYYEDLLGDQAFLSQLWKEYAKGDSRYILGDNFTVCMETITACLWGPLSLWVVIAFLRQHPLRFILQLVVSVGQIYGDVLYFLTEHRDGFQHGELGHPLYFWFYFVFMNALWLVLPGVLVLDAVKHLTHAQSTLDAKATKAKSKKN
The experiment is described as follows: EBP Functional Assay (EBP immunoaffinity LC-MS assay). It counts as biochemical.
Settings: not given
As for the experimental part: The EBP immunoaffinity (IA) LC-MS assay measures the potency of small molecule inhibitors of EBP by quantifying their concentration-dependent changes in the enzyme's substrate and product using liquid chromatography atmospheric pressure chemical ionization multiple reaction monitoring mass spectrometry (LC-APCI MRM MS). HEK293T cells were utilized as the source of EBP enzyme. The enzyme was incubated with the small molecule inhibitors at variable concentrations for 30 min. Deuterated form of EBP substrate, zymosterol-d5 (Avanti Polar Lipids, Cat #700068P-1 mg), was then added and the plate was incubated at 37 °C for 4 h. Finally, the sterol isomers were extracted and injected to LC-APCI MRM MS. MRM transition used for the quantification for both zymosterol and dihydrolathosterol (substrate and product of EBP enzymatic reaction, respectively) is 372.3-203.2, CE 30 and DP 80 in positive ion mode. Percent conversion of the zymosterol-d5 to dehydrolathosterol-d5 was used to derive IC50 curves. Tasin-1 (1′-[(4-Methoxyphenyl)sulfonyl]-4-methyl-1,4′-bipiperidine, CAS 792927-06-1) was used as the reference small molecule inhibitor.
Percent conversion versus the compound concentration data were fit to the following 4-parameter logistic model to generate IC50 curves: […]
`Cc1nc(C(F)(F)F)ccc1S(=O)(=O)N1CC2(CC(N3CC4(COC4)C3)C2)C1` [Example 4, 6-(2-((2-Methyl-6-(trifluoromethyl)pyridin-3-yl)sulfonyl)-2-azaspiro[3.3]heptan-6-yl)-2-oxa-6-azaspiro[3.3]heptane] showed an IC50 of 500 to 3000 nM.

The compound `Cc1nc(C(F)(F)F)ccc1S(=O)(=O)N1CC2(CC(N3CC4(CCO4)C3)C2)C1` [Example 6, 6-(2-((2-Methyl-6-(trifluoromethyl)pyridin-3-yl)sulfonyl)-2-azaspiro[3.3]heptan-6-yl)-1-oxa-6-azaspiro[3.3]heptane] yielded an IC50 of 500 to 3000 nM.

`Cn1nc(C(F)(F)F)cc1S(=O)(=O)N1CC2(CC(N3CC4(COC4)C3)C2)C1` [Example 14, 6-(2-((1-Methyl-3-(trifluoromethyl)-1H-pyrazol-5-yl)sulfonyl)-2-azaspiro[3.3]heptan-6-yl)-2-oxa-6-azaspiro[3.3]heptane] returned an IC50 of 500 to 3000 nM.

For `Cn1nc(C(F)(F)F)cc1S(=O)(=O)N1CC2(CC(N3CC4(CCO4)C3)C2)C1` [Example 15, 6-(2-((1-Methyl-3-(trifluoromethyl)-1H-pyrazol-5-yl)sulfonyl)-2-azaspiro[3.3]heptan-6-yl)-1-oxa-6-azaspiro[3.3]heptane], the IC50 was in the range of 500 to 3000 nM.

`Cc1nc(C(F)(F)F)ncc1S(=O)(=O)N1CC2(CC(N3CC4(COC4)C3)C2)C1` [Example 17, 6-(2-((4-Methyl-2-(trifluoromethyl)pyrimidin-5-yl)sulfonyl)-2-azaspiro[3.3]heptan-6-yl)-2-oxa-6-azaspiro[3.3]heptane] displayed an IC50 greater than 3000 nM.

`CC(C)c1cc(S(=O)(=O)N2CC3(CC(N4CCOCC4)C3)C2)n(C)n1` [Example 19, 4-(2-((3-Isopropyl-1-methyl-1H-pyrazol-5-yl)sulfonyl)-2-azaspiro[3.3]heptan-6-yl)morpholine] yielded an IC50 of less than 100 nM.

The compound `COc1ncc(C)cc1S(=O)(=O)N1CC2(CC(N3CC4(COC4)C3)CO2)C1` (stereo not drawn) [Example 22, 2-((2-Methoxy-5-methylpyridin-3-yl)sulfonyl)-7-(2-oxa-6-azaspiro[3.3]heptan-6-yl)-5-oxa-2-azaspiro[3.4]octane] had an IC50 of 500 to 3000 nM.

The experiment is the same for the next values; noted with them: HEK293T cells as source of EBP enzyme; zymosterol-d5 substrate; inhibitor 30 min, then 37 °C for 4 h; percent conversion to dehydrolathosterol-d5 by LC-APCI MRM MS; read-out: EBP Functional Assay.
As to `Cc1nc(C(F)(F)F)ccc1S(=O)(=O)N1CC2(CC[C@@H](N3CCOCC3)C2)C1` (single isomer, unassigned) [Example 60], the IC50 is less than 100 nM.

As for `Cc1nc(C(F)(F)F)ccc1S(=O)(=O)N1CC2(CC[C@H](N3CCOCC3)C2)C1` (single isomer, unassigned) [Example 61], the IC50 fell in the range of 100 to 500 nM.

With `Cc1cc(C(F)(F)F)ncc1S(=O)(=O)N1CC2(CC[C@@H](N3CCOCC3)C2)C1` (single isomer, unassigned) [Example 62], the IC50 was less than 100 nM.

Consider `Cc1cc(C(F)(F)F)ncc1S(=O)(=O)N1CC2(CC[C@H](N3CCOCC3)C2)C1` (single isomer, unassigned) [Example 63], for which the IC50 lay within 100 to 500 nM.

`Cc1nc(Cl)ccc1S(=O)(=O)N1CC2(CC[C@@H](N3CCOCC3)C2)C1` (single isomer, unassigned) [Example 64]: the IC50 is less than 100 nM.

As for `Cc1nc(Cl)ccc1S(=O)(=O)N1CC2(CC[C@H](N3CCOCC3)C2)C1` (single isomer, unassigned) [Example 65], the IC50 lay within 100 to 500 nM.

With `Cc1cc(S(=O)(=O)N2CC3(CC[C@@H](N4CCOCC4)C3)C2)n(C)n1` (single isomer, unassigned) [Example 66], the IC50 fell in the range of 100 to 500 nM.

For `Cc1cc(S(=O)(=O)N2CC3(CC[C@H](N4CCOCC4)C3)C2)n(C)n1` (single isomer, unassigned) [Example 67], the IC50 is 500 to 3000 nM.

As to `Cc1nc(C(C)(F)F)ccc1S(=O)(=O)N1CC2(CC(N3CC4(COC4)C3)C2)C1` [Example 1, 6-(2-((6-(1,1-Difluoroethyl)-2-methylpyridin-3-yl)sulfonyl)-2-azaspiro[3.3]heptan-6-yl)-2-oxa-6-azaspiro[3.3]heptane], the IC50 was less than 100 nM.

For the compound `Cc1nc(C(C)(F)F)ccc1S(=O)(=O)N1CC2(CC(NC3CCOCC3)C2)C1` [Example 2, 2-((6-(1,1-Difluoroethyl)-2-methylpyridin-3-yl)sulfonyl)-N-(tetrahydro-2H-pyran-4-yl)-2-azaspiro[3.3]heptan-6-amine], the IC50 was less than 100 nM.

Consider `Cc1nc(C(F)(F)F)ccc1S(=O)(=O)N1CC2(CC(NC3CCOCC3)C2)C1` [Example 3, 2-((2-Methyl-6-(trifluoromethyl)pyridin-3-yl)sulfonyl)-N-(tetrahydro-2H-pyran-4-yl)-2-azaspiro[3.3]heptan-6-amine], for which the IC50 fell in the range of 100 to 500 nM.

Take `Cc1nc(C(F)(F)F)ccc1S(=O)(=O)N1CC2(CC(N3CCOCC3)C2)C1` [Example 5, 4-(2-((2-Methyl-6-(trifluoromethyl)pyridin-3-yl)sulfonyl)-2-azaspiro[3.3]heptan-6-yl)morpholine]: the IC50 fell in the range of 100 to 500 nM.

In the case of `Cc1nc(C(F)(F)F)ccc1S(=O)(=O)N1CC2(CC(NC3(C4CCOCC4)CC3)C2)C1` [Example 7, 2-((2-Methyl-6-(trifluoromethyl)pyridin-3-yl)sulfonyl)-N-(1-(tetrahydro-2H-pyran-4-yl)cyclopropyl)-2-azaspiro[3.3]heptan-6-amine], the IC50 lay within 100 to 500 nM.

With `Cc1nc(C(F)(F)F)ccc1S(=O)(=O)N1CC2(CC(NC3COC3)C2)C1` [Example 8, 2-((2-Methyl-6-(trifluoromethyl)pyridin-3-yl)sulfonyl)-N-(oxetan-3-yl)-2-azaspiro[3.3]heptan-6-amine], the IC50 lay within 500 to 3000 nM.

On to `Cc1nc(C(F)(F)F)ccc1S(=O)(=O)N1CC2(CC(NCC3(C)COC3)C2)C1` [Example 9, 2-((2-Methyl-6-(trifluoromethyl)pyridin-3-yl)sulfonyl)-N-((3-methyloxetan-3-yl)methyl)-2-azaspiro[3.3]heptan-6-amine], for which the IC50 was less than 100 nM.

Take `Cn1nc(C(F)(F)F)cc1S(=O)(=O)N1CC2(CC(N3CCOCC3)C2)C1` [Example 10, 4-(2-((1-Methyl-3-(trifluoromethyl)-1H-pyrazol-5-yl)sulfonyl)-2-azaspiro[3.3]heptan-6-yl)morpholine]: the IC50 fell in the range of 100 to 500 nM.

Take `Cn1nc(C(F)(F)F)cc1S(=O)(=O)N1CC2(CC(NCC3COC3)C2)C1` [Example 11, 2-((1-Methyl-3-(trifluoromethyl)-1H-pyrazol-5-yl)sulfonyl)-N-(oxetan-3-ylmethyl)-2-azaspiro[3.3]heptan-6-amine]: the IC50 was in the range of 100 to 500 nM.

Regarding `Cn1nc(C(F)(F)F)cc1S(=O)(=O)N1CC2(CC(NCC3(C)COC3)C2)C1` [Example 12, 2-((1-Methyl-3-(trifluoromethyl)-1H-pyrazol-5-yl)sulfonyl)-N-((3-methyloxetan-3-yl)methyl)-2-azaspiro[3.3]heptan-6-amine], the IC50 was less than 100 nM.

Consider `Cn1nc(C(F)(F)F)cc1S(=O)(=O)N1CC2(CC(NC3COC3)C2)C1` [Example 13, 2-((1-Methyl-3-(trifluoromethyl)-1H-pyrazol-5-yl)sulfonyl)-N-(oxetan-3-yl)-2-azaspiro[3.3]heptan-6-amine], for which the IC50 is 500 to 3000 nM.

Take `Cc1nc(C(F)(F)F)ncc1S(=O)(=O)N1CC2(CC(N3CC4(CCO4)C3)C2)C1` [Example 16, 6-(2-((4-Methyl-2-(trifluoromethyl)pyrimidin-5-yl)sulfonyl)-2-azaspiro[3.3]heptan-6-yl)-1-oxa-6-azaspiro[3.3]heptane]: the IC50 lay within 500 to 3000 nM.

With `Cc1nc(C(F)(F)F)ccc1S(=O)(=O)NC1CC2(C1)CN(C1CCOCC1)C2` [Example 18, 2-Methyl-N-(2-(tetrahydro-2H-pyran-4-yl)-2-azaspiro[3.3]heptan-6-yl)-6-(trifluoromethyl)pyridine-3-sulfonamide], the IC50 was in the range of 500 to 3000 nM.

In the case of `CC1CCN(C2CC3(C2)CN(S(=O)(=O)c2ccc(OC(F)F)cc2)C3)CC1` [Example 20, 2-((4-(Difluoromethoxy)phenyl)sulfonyl)-6-(4-methylpiperidin-1-yl)-2-azaspiro[3.3]heptane], the IC50 lay within 500 to 3000 nM.

As to `COc1ncc(C)cc1S(=O)(=O)N1CC2(CC(NC3CCOCC3)CO2)C1` (stereo not drawn) [Example 21, 2-((2-Methoxy-5-methylpyridin-3-yl)sulfonyl)-N-(tetrahydro-2H-pyran-4-yl)-5-oxa-2-azaspiro[3.4]octan-7-amine], the IC50 lay within 500 to 3000 nM.

With `COc1ncc(C)cc1S(=O)(=O)N1CC2(CC(N3CC(OC)C3)CO2)C1` (stereo not drawn) [Example 23, 2-((2-Methoxy-5-methylpyridin-3-yl)sulfonyl)-7-(3-methoxyazetidin-1-yl)-5-oxa-2-azaspiro[3.4]octane], the IC50 lay within 500 to 3000 nM.

Regarding `COc1ncc(C)cc1S(=O)(=O)N1CC2(CC(NC3CCC(F)(F)CC3)CO2)C1` (stereo not drawn) [Example 24, N-(4,4-Difluorocyclohexyl)-2-((2-methoxy-5-methylpyridin-3-yl)sulfonyl)-5-oxa-2-azaspiro[3.4]octan-7-amine], the IC50 lay in the range of 100 to 500 nM.

With `COc1ncc(C)cc1S(=O)(=O)N1CC2(CC(NC3CC(F)(F)C3)CO2)C1` (stereo not drawn) [Example 25, N-(3,3-Difluorocyclobutyl)-2-((2-methoxy-5-methylpyridin-3-yl)sulfonyl)-5-oxa-2-azaspiro[3.4]octan-7-amine], the IC50 lay in the range of 500 to 3000 nM.
